Test results from patent US20220324835A1 (Nurix Therapeutics, Inc., priority 2018, published 2022).

Columns and labels:
[1] = biological target: T1, Cbl-b (Homo sapiens, UniProt Q13191); assay: Cbl-b inhibition assay (Cbl-b activity assay, FRET, Biological Example 1; 100 mM NaCl, 60 nM Src kinase); type: biochemical; conditions: upper bound stated in text lists; read-out: IC50 values in the Cbl-b inhibition assay of Biological Example 1
From the text: FIG. 1A and FIG. 1B show a series of diagrams depicting the activity assay utilized to assay inhibition of Cbl-b activity by a Cbl-b inhibitor. FIG. 1A: The activity assay mixture comprises an N-terminal biotinylated Avi-tagged Cbl-b, an E2 enzyme (i.e., UbcH5B) irreversibly conjugated to Bodipy-Fluorescein tagged ubiquitin (i.e., UbcH5B-Ub), a Src kinase, streptavidin-terbium, and assay buffer. Phosphorylation of Cbl-b by the Src kinase allows UbcH5B-Ub to bind to Cbl-b and bring the Bodipy-Fluorescein tagged ubiquitin in proximity to the streptavidin-terbium bound to the N-terminal biotinylated Avi-tagged Cbl-b. […] FIG. 1B: In the presence of a Cbl-b inhibitor, such as one described herein, Cbl-b is unable to bind UbcH5B-Ub. The lack of a FRET signal indicates Cbl-b is inhibited by the Cbl-b inhibitor. Ub indicates ubiquitin; N-Avi indicates biotinylated Avi-tag at the N-terminus of Cbl-b; inhibitor indicates Cbl-b inhibitor.
The lack of a FRET signal indicates Cbl-b is inhibited by the Cbl-b inhibitor. In FIG. 1A and FIG. 1B, Ub indicates ubiquitin; N-Avi indicates biotinylated Avi-tag at the N-terminus of Cbl-b; and inhibitor indicates Cbl-b inhibitor.

[2] = biological target: T1, Cbl-b; assay: Cbl-b activity assay (Cbl-b inhibition assay), TR-FRET of Cbl-b interaction with UbcH5B-Ub; type: biochemical; conditions: assay buffer with 100 mM NaCl, 60 nM Src kinase; read-out: Cbl-b activity IC50
Description: The ability of candidate compounds to inhibit Cbl-b activity was measured by monitoring the interaction of Cbl-b with UbcH5B-Ub in the presence of the candidate compound.
Fluorescently labeled UbcH5B-Ub was prepared by conjugating ubiquitin (Ub), labeled at its N-terminus with Bodipy-Fluorescein, to UbcH5B, an E2 enzyme, harboring a cysteine to lysine mutation at position 85. […] After incubation in the presence of the candidate compound, the plate was incubated for an additional 1.5 hours in the presence of 60 nM Src kinase with 1 mM ATP and 5 mM MgCl2 (final concentrations). […] The plate was incubated for 1 hour.
Column marked with an asterisk (*) were tested as described above with assay buffer containing 50 mM NaCl instead of 100 mM NaCl and 30 nM Src kinase instead of 60 nM Src kinase. The resulting data for the Cbl-b binding assay was solvent corrected and double referenced prior to analysis. All data were globally fit to a steady-state affinity and kinetic binding model where applicable). Fit parameters were derived from a 1:1 binding model using the Biacore T200 Evaluation Software V2.0 (GE Healthcare) (Table 2).

T1 sequence (Q13191 36-427): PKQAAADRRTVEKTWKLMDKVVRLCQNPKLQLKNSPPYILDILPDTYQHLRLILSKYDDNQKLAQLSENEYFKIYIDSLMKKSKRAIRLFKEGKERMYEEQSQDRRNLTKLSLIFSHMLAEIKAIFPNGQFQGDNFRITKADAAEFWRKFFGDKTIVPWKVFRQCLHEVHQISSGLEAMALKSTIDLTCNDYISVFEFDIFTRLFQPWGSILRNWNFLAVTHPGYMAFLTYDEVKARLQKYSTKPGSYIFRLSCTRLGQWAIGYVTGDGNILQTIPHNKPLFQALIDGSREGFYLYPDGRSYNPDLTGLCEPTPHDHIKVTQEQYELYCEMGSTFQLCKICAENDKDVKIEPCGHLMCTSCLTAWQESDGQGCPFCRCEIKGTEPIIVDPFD

SMILES | IC50 [1] [nM] | IC50 [2] [nM]
Cn1cnnc1CC1(c2cccc(N3Cc4c(cc(C5CCCOC5)cc4C(F)(F)F)C3=O)c2)COC1 (stereo not drawn) [Example 615, 2-(3-(3-((4-methyl-4H-1,2,4-triazol-3-yl)methyl)oxetan-3-yl)phenyl)-6-(tetrahydro-2H-pyran-3-yl)-4-(trifluoromethyl)isoindolin-1-one] | ≤ 100 | < 100
CC1=C(c2cc3c(c(C(F)(F)F)c2)CN(c2cccc(C4(Cc5nncn5C)COC4)c2)C3=O)CCO1 [Example 616, 6-(2-methyl-4,5-dihydrofuran-3-yl)-2-(3-(3-((4-methyl-4H-1,2,4-triazol-3-yl)methyl)oxetan-3-yl)phenyl)-4-(trifluoromethyl)isoindolin-1-one] | ≤ 100 | < 100
C[C@H](Cc1nncn1C)c1cccc(NC(=O)c2cc(C(=O)NC3CCOC3)ccn2)c1 (stereo partly drawn) [Compound 228, N2-(3-((R)-1-(4-methyl-4H-1,2,4-triazol-3-yl)propan-2-yl)phenyl)-N4-(tetrahydrofuran-3-yl)pyridine-2,4-dicarboxamide] | ≤ 10000 | 3000 to 10000
Cn1cnnc1CC1(c2cccc(N3Cc4c(cc(C(O)C(F)(F)F)cc4C(F)(F)F)C3=O)c2)COC1 (stereo not drawn) [Example 580, 2-(3-(3-((4-Methyl-4H-1,2,4-triazol-3-yl)methyl)oxetan-3-yl)phenyl)-6-(2,2,2-trifluoro-1-hydroxyethyl)-4-(trifluoromethyl)isoindolin-1-one] | ≤ 100 | < 100
Cc1conc1C[C@H](C)c1cccc(NC(=O)c2ccnc(C(F)(F)F)n2)c1 [Compound 213b, (S)-N-(3-(1-(4-methylisoxazol-3-yl)propan-2-yl)phenyl)-2-(trifluoromethyl)pyrimidine-4-carboxamide] | ≤ 10000 | 3000 to 10000
Cn1cnnc1CC1(c2cccc(N3Cc4c(cc(CN5CCC(F)CC5)cc4C4CC4)C3=O)c2)COC1 [Example 552, 4-cyclopropyl-6-((4-fluoropiperidin-1-yl)methyl)-2-(3-(3-((4-methyl-4H-1,2,4-triazol-3-yl)methyl)oxetan-3-yl)phenyl)isoindolin-1-one] | ≤ 100 | < 100
Cn1cnnc1CC1(c2cccc(N3Cc4c(cc(CN5CCc6ccncc6C5)cc4C(F)(F)F)C3=O)c2)COC1 [Example 638, 6-((3,4-dihydro-2,7-naphthyridin-2(1H)-yl)methyl)-2-(3-(3-((4-methyl-4H-1,2,4-triazol-3-yl)methyl)oxetan-3-yl)phenyl)-4-(trifluoromethyl)isoindolin-1-one] | ≤ 100 | < 100
Cn1cnnc1CC1(c2cccc(N3Cc4c(cc(CN5CCc6ncccc6C5)cc4C(F)(F)F)C3=O)c2)COC1 [Example 709, 6-((7,8-dihydro-1,6-naphthyridin-6(5H)-yl)methyl)-2-(3-(3-((4-methyl-4H-1,2,4-triazol-3-yl)methyl)oxetan-3-yl)phenyl)-4-(trifluoromethyl)isoindolin-1-one] | ≤ 100 | < 100
COC(Cc1nncn1C)c1cccc(N2Cc3c(cccc3C(F)(F)F)C2=O)c1 (stereo not drawn) [Compound 290, 2-(3-(1-methoxy-2-(4-methyl-4H-1,2,4-triazol-3-yl)ethyl)phenyl)-4-(trifluoromethyl)isoindolin-1-one] | ≤ 10000 | 1000 to 3000
Cn1cnnc1CC1(c2cccc(N3Cc4c(cc(CN5CC[C@@H](F)[C@H](F)C5)cc4C(F)(F)F)C3=O)c2)COC1 [Example 626b, 6-(((3R,4R)-3,4-difluoropiperidin-1-yl)methyl)-2-(3-(3-((4-methyl-4H-1,2,4-triazol-3-yl)methyl)oxetan-3-yl)phenyl)-4-(trifluoromethyl)isoindolin-1-one] | ≤ 100 | < 100
Cn1cnnc1CC1(c2cccc(N3Cc4c(cc(CN5CCOC6(CC6)C5)cc4C(F)(F)F)C3=O)c2)COC1 [Example 666, 6-((4-oxa-7-azaspiro[2.5]octan-7-yl)methyl)-2-(3-(3-((4-methyl-4H-1,2,4-triazol-3-yl)methyl)oxetan-3-yl)phenyl)-4-(trifluoromethyl)isoindolin-1-one] | ≤ 100 | < 100
Cc1ccc(C(=O)Nc2cccc([C@H](C)[C@H](O)c3nncn3C)c2)nc1C1CC1 [Compound 288, Trans-6-cyclopropyl-N-(3-(1-hydroxy-1-(4-methyl-4H-1,2,4-triazol-3-yl)propan-2-yl)phenyl)-5-methylpicolinamide] | ≤ 10000 | 3000 to 10000
CC(c1cc(C(=O)Nc2cccc(C3(Cc4nncn4C)COC3)c2)nc(C2CC2)n1)N1CCC2(CC2)C1 (stereo in doubt) [Example 592b, (S)-6-(1-(5-azaspiro[2.4]heptan-5-yl)ethyl)-2-cyclopropyl-N-(3-(3-((4-methyl-4H-1,2,4-triazol-3-yl)methyl)oxetan-3-yl)phenyl)pyrimidine-4-carboxamide] | ≤ 100 | < 100
C[C@H](Sc1nncn1C)c1ccnc(NC(=O)c2ccc(Cl)c(C(F)(F)F)n2)c1 [Compound 106, (S)-5-chloro-N-(4-(1-((4-methyl-4H-1,2,4-triazol-3-yl)thio)ethyl)pyridin-2-yl)-6-(trifluoromethyl)picolinamide] | ≤ 10000 | 1000 to 3000
CC(Cc1nncn1C)c1cc(F)cc(N2Cc3c(cccc3C(F)(F)F)C2=O)c1 (stereo not drawn) [Compound 281] | ≤ 500 | 100 to 300
Cn1cnnc1CC1(c2cccc(N3Cc4c(cc(CN5CCOC(CCO)C5)cc4C(F)(F)F)C3=O)c2)COC1 (stereo not drawn) [Example 717, 6-{[2-(2-hydroxyethyl)morpholin-4-yl]methyl}-2-(3-{3-[(4-methyl-1,2,4-triazol-3-yl)methyl]oxetan-3-yl}phenyl)-4-(trifluoromethyl)-3H-isoindol-1-one] | ≤ 100 | < 100
Cc1nnnn1CC(C)c1cccc(NC(=O)c2cccc(C(F)(F)F)n2)c1 (stereo not drawn) [Compound 217, N-[3-[1-methyl-2-(5-methyltetrazol-1-yl)ethyl]phenyl]-6-(trifluoromethyl)pyridine-2-carboxamide] | ≤ 10000 | > 10000
Cn1cnnc1CC(C)(C)c1cccc(NC(=O)c2ccnc(C(F)(F)F)n2)c1 [Compound 285, N-(3-(2-methyl-1-(4-methyl-4H-1,2,4-triazol-3-yl)propan-2-yl)phenyl)-2-(trifluoromethyl)pyrimidine-4-carboxamide] | ≤ 500 | 100 to 300
CC(Cn1[nH]cnc1=O)c1cccc(NC(=O)c2cccc(C(F)(F)F)n2)c1 (stereo not drawn) [Compound 219, N-[3-[1-methyl-2-(3-oxo-1H-1,2,4-triazol-2-yl)ethyl]phenyl]-6-(trifluoromethyl)pyridine-2-carboxamide] | ≤ 10000 | 3000 to 10000
C[C@H](Cc1n[nH]cc1CO)c1cccc(N2Cc3c(cccc3C(F)(F)F)C2=O)c1 [Compound 271b, (R)-2-(3-(1-(4-(hydroxymethyl)-1H-pyrazol-3-yl)propan-2-yl)phenyl)-4-(trifluoromethyl)isoindolin-1-one] | ≤ 10000 | 1000 to 3000
COc1ccc2c(c1)CN(Cc1cc3c(c(C(F)(F)F)c1)CN(c1cccc(C4(Cc5nncn5C)COC4)c1)C3=O)CC2 [Example 661, 6-((7-methoxy-3,4-dihydroisoquinolin-2(1H)-yl)methyl)-2-(3-(3-((4-methyl-4H-1,2,4-triazol-3-yl)methyl)oxetan-3-yl)phenyl)-4-(trifluoromethyl)isoindolin-1-one] | ≤ 100 | < 100
Cn1cnnc1CC1(c2cccc(N3Cc4c(cc(CN5CCOC(CC(F)(F)F)C5)cc4C(F)(F)F)C3=O)c2)COC1 (stereo not drawn) [Example 715, 2-(3-(3-((4-methyl-4H-1,2,4-triazol-3-yl)methyl)oxetan-3-yl)phenyl)-6-((2-(2,2,2-trifluoroethyl)morpholino)methyl)-4-(trifluoromethyl)isoindolin-1-one] | ≤ 100 | < 100
Cc1cn(C)c(SC(C)c2ccnc(NC(=O)c3ccc4ccccc4n3)c2)n1 (stereo not drawn) [Compound 129, N-(4-(1-((1,4-dimethyl-1H-imidazol-2-yl)thio)ethyl)pyridin-2-yl)quinoline-2-carboxamide] | ≤ 10000 | > 10000
CC(Sc1nncn1C)c1cc(NCCO)nc(N2Cc3c(cccc3C(F)(F)F)C2=O)c1 (stereo not drawn) [Compound 174, 2-[6-(2-hydroxyethylamino)-4-[1-[(4-methyl-1,2,4-triazol-3-yl)sulfanyl]ethyl]-2-pyridyl]-4-(trifluoromethyl)isoindolin-1-one] | ≤ 10000 | 1000 to 3000
